US6271384A, “Self-assembled taxo-diterpenoid nanostructures” (The Scripps Research Institute, priority 1998, dated 2001)
Counter-ions that a name gives are not always drawn.

What was measured:
tubulin = test: Microtubule (tubulin) polymerization-depolymerization measurements; assay type: biochemical; conditions: for suppression of calcium chloride promoted depolymerization: 10^-6 M, CaCl2 0.25 mM, 1.0 mM GTP, 37° C.
Procedure: Tubulin polymerization-depolymerization measurements are illustrate in FIG. 3. Negative controls are shown with triangles; positive taxol controls are shown with diamonds; and taxol-2'-MPT, i.e., compound 2 is shown with dots.
More particularly, measurement were performed in 96 well plates at 37° C. following the protocol of R. Merlock and W. Wrasidlo (Analytical Biochemistry 1993, in press). Calcium chloride addition is indicated by the arrow. In each case, 1.0 mM GTP was used to promote the initial polymerization of tubulin. Negative control employed tubulin (1.0 mg/mL) alone, CaCl2 (0.25 mM) added after 20 minutes. Positive taxol control employed tubulin (1.0 mg/mL) with taxol (10^-6 M) and CaCl2 (0.25 mM) added after 20 minutes. The experimental taxol-2'-MPTemployed tubulin (1.0 mg/mL) with taxol-2'-MPT (10^-6) and CaCl2 (0.25 mM) added after 20 minutes. Turbidity was measured as optical density at 340 nm using a microplate reader (Molecular Devices Thermomax).

[1] = Stability measurements of taxol-2'-MPT by HPLC (solid state and aqueous media); assay type: physicochemical
Procedure: Due to a difference in retention time using our standard HPLC conditions (see FIG. 1) and differing ultraviolet absorption maxima (l280 /l254 =1.6 for 2 and 0.3 for 1), the stability of 2 was easily assayed by HPLC (FIG. 1). […] In phosphate buffered saline (PBS) or ammonium acetate-phosphate buffer systems of pH 6.0 to 7.3, 2 is stable at 25° C. for over 21 days. Taxol-2'-MPT (2) is, however, unstable in 5% HCl (pH 1.1) and brine.
Under these conditions 20% of total is recovered. More particularly, Taxol-2'-MPT (2) was dissolved in the aqueous system with the aid of sonication for five minutes. Aliquots were then removed at the times shown and partitioned into methylene chloride to quench the reaction. Samples were then analyzed using a Waters Maxima HPLC instrument equipped with an autoinjector (3.9×300 mm C18 column equipped with a precolumn. The flow rate was 1.5 mL/minute. The eluent gradient A-B extended over 30 minutes. "A" was 80% 80 mM ammonium acetate, pH 6.0. "B" was 100% methanol. An ultraviolet diode array detector was employed. The ratio of compound 2 (Rf 16.2 min.) to taxol (compound 1, Rf 16.8 min.) remaining was determined from the relative areas of the peaks after normalization with previously determined calibration curves.

non-serum proteins = test: Displacement of the MPT group by non-serum proteins; conditions: tested non-serum proteins
From the text: (§1) However, the release of taxol from taxol-2'-MPT can also be catalyzed by serum protein and by proteins having nucleophilic groups. […] Dialysis of the protein:taxol intermediate indicates a dissociation period of hours or days. Displacement of the MPT group by serum proteins seems to be specific for such serum proteins. […] The precise nature of the bonding between the protein and taxol has not been characterized. Scheme 2 illustrates alternative pathways for MPT release.

[2] = test system: A549 non-small cell lung adenocarcinoma xenograft; test: Efficacy in lung tumor xenograft nude mouse model
[3] = Procedure: The solubility and partition coefficient data for 2 and taxol were determined using an HPLC method.
Solubility was found by forming a solution in water with the aid of sonication for five minutes, centrifugation of the samples, and injection of the supernatant. The values reported were normalized using calibration curves constructed for both compounds by preparing known concentrations in the range 1×10^-6 to 1×10^-3 M in methylene chloride and subjecting to HPLC analysis under the same conditions. […] Partition coefficients were determined by dissolving the compound in the organic phase, shaking the resulting solution with water for ten minutes, and analyzing each phase by HPLC as above.

[4] = Kinetics of taxol release / breakdown in plasma (HPLC); assay type: in vitro ADME, human; conditions: methylene chloride extraction, 25° C.
serum albumen = test: Displacement of the MPT group by serum albumen
From the text: as §1

immunoglobulins = test: Displacement of the MPT group by immunoglobulins
From the text: as §1

[5] = Self-assembly: optical density at 340 nm, light scattering and TEM; assay type: physicochemical
From the text: Transmission electron microscopy (TEM) confirmed the presence of supramolecular structures in these solutions. […] It is likely that the long term stability of these solutions is due, at least in part, to stabilization provided by this structured environment.

[6] = test system: leukemia, ovarian, lung, and breast carcinoma cells; test: Cytotoxicity against a cell line panel (XTT)
Procedure: More particularly, cells were plated on 96 well plates with the following controls: no cells and toxic control (1×10^-3 M SDS). The drug was added to the first set of wells and diluted via standard dilution method from the stock. Plates were incubated at 37° C., 5% CO2 in sterile air in an humidified incubator for 72 hours. An aliquot of 50 μL of a solution of 2,3-bis(methoxy-4-nitro-5-sulfophenyl)-5-[(phenylamino)carbonyl]-1H-tetrazolium hydroxide (XTT), 1 mg mL^-1, in phosphate buffered saline (PBS, 100 mM) was added to the wells. In the presence of viable cells, this colorless clear media is enzymatically altered to give a pink coloration. […] Percentage cytotoxicity was calculated using the formula: %C=1-(OD toxin)(OD growth control)^-1 (100).

serum protein = test: Displacement of the MPT group by serum protein and dialysis of the protein:taxol intermediate
From the text: as §1

cervical carcinoma = test: Cytotoxicity, cervical carcinoma (XTT); conditions: 72 hours
Procedure: (§2) More particularly, cells were plated on 96 well plates with the following controls: no cells and toxic control (1×10^-3 M SDS). The drug was added to the first set of wells and diluted via standard dilution method from the stock. Plates were incubated at 37° C., 5% CO2 in sterile air in an humidified incubator for 72 hours. An aliquot of 50 μL of a solution of 2,3-bis(methoxy-4-nitro-5-sulfophenyl)-5-[(phenylamino)carbonyl]-1H-tetrazolium hydroxide (XTT), 1 mg mL^-1, in phosphate buffered saline (PBS, 100 mM) was added to the wells. In the presence of viable cells, this colorless clear media is enzymatically altered to give a pink coloration. The plates were read at 450 nm using a plate reader. Percentage cytotoxicity was calculated using the formula: %C=1-(OD toxin)(OD growth control)^-1 (100).

human leukemia = test: Cytotoxicity, human leukemia (XTT); conditions: 72 hours
Procedure: as §2

metastatic melanoma = test: Cytotoxicity, metastatic melanoma (XTT); conditions: 72 hours
Procedure: as §2

Structure (SMILES): CC(=O)O[C@H]1C(=O)[C@@]2(C)[C@H]([C@H](OC(=O)c3ccccc3)[C@]3(O)C[C@H](OC(=O)[C@H](Oc4cccc[n+]4C)[C@@H](NC(=O)c4ccccc4)c4ccccc4)C(C)=C1C3(C)C)[C@]1(OC(C)=O)CO[C@@H]1C[C@@H]2O [Compound 2, Taxol-2'-MPT (methylpyridinium tosylate)]
- suppression of calcium chloride promoted depolymerization (tubulin): not by taxol-2'-MPT
- conversion to taxol in assay buffer (tubulin; buffered aqueous environment of this assay): not converted to taxol
- microtubule polymerization-depolymerization profile (tubulin; compared with GTP-saline controls and taxol): very similar to GTP-saline controls and drastically different from taxol
- binding to tubulin (tubulin; inferred from polymerization assay): does not appear to bind to tubulin in the manner of taxol
- stability in 5% HCl ([1]; 5% HCl (pH 1.1)): unstable
- stability in brine ([1]; brine): unstable
- stability in most aqueous media ([1]; most aqueous media): remarkably stable compound in most aqueous media
- stability in phosphate buffered saline or ammonium acetate-phosphate buffer ([1]; pH 6.0 to 7.3, 25° C.): over 21 days
- stability in aqueous media at physiological pH and ion strength ([1]; physiological pH and ion strength): essentially completely stable
- taxol release in aqueous solutions ([1]; sterile water, pH 6.2 phosphate buffered saline or 5% dextrose, 25° C., 11 minutes): no taxol release is observed over a period of 11 minutes
- displacement of MPT group by non-serum proteins (non-serum proteins): seemed to lack this activity
- control of tumor growth ([2]; I.P. day 1,3, and 7, 2 23.9 mg/kg, taxol 18.0 mg/kg, preliminary data): at least comparable to that of taxol
- conversion to taxol in vivo ([2]; inferred from xenograft results): converted rapidly to taxol in vivo
- degradation during solubility and partition studies [3]: No degradation
- solubility in aqueous systems relative to clinically relevant dosages [3]: higher than the clinically relevant dosages (3 to 30 mM)
- water solubility relative to taxol [3]: significantly more soluble in water than the parent taxol
- time to complete conversion of 2 into taxol in plasma [4]: ≤ 10 min
- displacement of MPT group by serum albumen (serum albumen): particularly effective
- displacement of MPT group by immunoglobulins (immunoglobulins): particularly effective
- critical concentration (exponential increase in optical density; critical aggregation concentration) ([5]; OD at 340 nm): 400 µM
- diameter of helical fibrillar structures ([5]; TEM): ca. 80 Å
- helical twist ([5]; TEM): about 7
- length of helical fibrillar structures ([5]; TEM): up to 800 Å
- concentration above which buffered solutions exhibit haze and diffuse scattering ([5]; buffered solutions): greater than 1×10^-3 M
- appearance of water solutions ([5]; water, all concentrations examined): optically clear at all concentrations examined
- cytotoxicity (discussion statement) [6]: lack of cytotoxicity
- differential cytotoxicity profile ([6]; 2 compared with taxol): similar, although some differences were noted
- displacement of MPT group / formation of protein:taxol intermediate (serum protein; contacted with serum protein): observed to displace its MPT group and form a protein:taxol intermediate
- dissociation period of protein:taxol intermediate (serum protein; dialysis): hours or days

Structure (SMILES): CC(=O)O[C@H]1C(=O)[C@@]2(C)[C@H]([C@H](OC(=O)c3ccccc3)[C@]3(O)C[C@H](OC(=O)[C@H](O)[C@@H](NC(=O)c4ccccc4)c4ccccc4)C(C)=C1C3(C)C)[C@]1(OC(C)=O)CO[C@@H]1C[C@@H]2O [Taxol, taxol]
- suppression of calcium chloride promoted depolymerization (tubulin): suppressed by taxol
- cytotoxicity level, cervical carcinoma (cervical carcinoma): Extremely high cytotoxicity levels
- cytotoxicity level, human leukemia (human leukemia): Extremely high cytotoxicity levels
- cytotoxicity level, metastatic melanoma (metastatic melanoma): Extremely high cytotoxicity levels
